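Tested at 5 concentrations; 48 h exposure; 96-well plates; endpoints linearly interpolated, else capped at highest concentration. GI50 marks 50% less growth. TGI denotes the concentration required for complete inhibition of growth.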
Tests used:
Experiment in all cases: NCI-60 cell line screen, 48 h
[1] = tested on: SN12C renal
[2] = tested on: HOP-92 NSCLC
[3] = tested on: 786-0 renal
[4] = tested on: HCT-116 colon
[5] = tested on: MCF7 breast
[6] = tested on: NCI-H522 lung
[7] = tested on: OVCAR-5 ovarian
[8] = tested on: NCI/ADR-RES ovarian
[9] = tested on: KM12 colon
[10] = tested on: HS 578T breast
[11] = tested on: SK-OV-3 ovarian
[12] = tested on: RPMI-8226 leukemia
[13] = tested on: ACHN renal
[14] = tested on: U251 CNS
[15] = tested on: LOX IMVI melanoma
[16] = tested on: K-562 leukemia
[17] = tested on: NCI-H460 lung
[18] = tested on: HCT-15 colon
[19] = tested on: TK-10 renal
[20] = tested on: SF-268 CNS
[21] = tested on: MALME-3M melanoma
[22] = tested on: DU-145 prostate
[23] = tested on: M14 melanoma
[24] = tested on: T-47D breast
[25] = tested on: UACC-62 melanoma
[26] = tested on: NCI-H226 lung
[27] = tested on: NCI-H23 lung
[28] = tested on: HOP-62 NSCLC
[29] = tested on: A498 renal
[30] = tested on: MDA-MB-435
[31] = tested on: SR leukemia
[32] = tested on: CAKI-1 renal
[33] = tested on: SF-295 CNS
[34] = tested on: SK-MEL-28 melanoma
[35] = tested on: COLO 205 colon
[36] = tested on: RXF 393 renal
[37] = tested on: SNB-19 CNS
[38] = tested on: SK-MEL-5 melanoma
[39] = tested on: UO-31 renal
[40] = tested on: SK-MEL-2 melanoma
[41] = tested on: OVCAR-4 ovarian
[42] = tested on: A549 NSCLC
[43] = tested on: CCRF-CEM leukemia
[44] = tested on: OVCAR-8 ovarian
[45] = tested on: PC-3 prostate
[46] = tested on: OVCAR-3 ovarian
[47] = tested on: IGROV1 ovarian
[48] = tested on: HCC-2998 colon
[49] = tested on: MOLT-4 leukemia
[50] = tested on: SNB-75 CNS
[51] = tested on: HL-60(TB) leukemia
[52] = tested on: MDA-MB-231 breast
[53] = tested on: BT-549 breast
[54] = tested on: SF-539 CNS

In the case of `O=C1C(Cl)=C(Nc2cccc(Cl)c2)C(=O)N1Cc1ccccc1`, the GI50 [1] is reported as 11.2 µM, the TGI [1] is reported as 25.1 µM and the GI50 [2] is reported as 5.36 µM. For the same molecule, the TGI [2] was 26.3 µM, the GI50 [3] was 3.85 µM and the TGI [3] was 16.2 µM. It also gave a GI50 [4] of 3.56 µM, a TGI [4] of 13.3 µM and a GI50 [5] of 14.9 µM. The TGI [5] was greater than 100 µM, the GI50 [6] was 14.2 µM and the TGI [6] was greater than 100 µM. The GI50 [7] was 9.49 µM, the TGI [7] was 33.1 µM and the GI50 [8] was 6.87 µM. For the same molecule, the TGI [8] was 24.7 µM, the GI50 [9] was 11.5 µM and the TGI [9] was 26.9 µM. The GI50 [10] was 6.34 µM, the TGI [10] was 27.5 µM and the GI50 [11] was 15.7 µM. It also gave a TGI [11] of 35 µM, a GI50 [12] of 1.37 µM and a TGI [12] of 7.9 µM. The GI50 [13] was 14 µM, the TGI [13] was 28.8 µM and the GI50 [14] was 3.98 µM. For the same molecule, the TGI [14] was 15.5 µM, the GI50 [15] was 4.01 µM and the TGI [15] was 15.3 µM. The GI50 [16] was 2.9 µM, the TGI [16] was greater than 100 µM and the GI50 [17] was 7.11 µM. For the same molecule, the TGI [17] was 27.9 µM, the GI50 [18] was 10.8 µM and the TGI [18] was 27.4 µM. It also gave a GI50 [19] of 13.9 µM, a TGI [19] of 32.3 µM and a GI50 [20] of 6.76 µM. For the same molecule, the TGI [20] was 22.2 µM, the GI50 [21] was 5.12 µM and the TGI [21] was 20.1 µM. It also gave a GI50 [22] of 15.3 µM, a TGI [22] of 30.6 µM and a GI50 [23] of 6.73 µM. The TGI [23] was 22.5 µM, the GI50 [24] was 33.8 µM and the TGI [24] was greater than 100 µM. It also gave a GI50 [25] of 12.4 µM, a TGI [25] of 27.5 µM and a GI50 [26] of 10.5 µM. The TGI [26] was 29.3 µM, the GI50 [27] was 5.94 µM and the TGI [27] was 23.4 µM. The GI50 [28] was 11.2 µM, the TGI [28] was 24.4 µM and the GI50 [29] was 10.6 µM. The TGI [29] was 22.7 µM, the GI50 [30] was 2.26 µM and the TGI [30] was 7.17 µM. The GI50 [31] was 2.19 µM, the TGI [31] was 29.3 µM and the GI50 [32] was 5.06 µM. It also gave a TGI [32] of 27.7 µM, a GI50 [33] of 6.28 µM and a TGI [33] of 20.1 µM. It also gave a GI50 [34] of 19.5 µM, a TGI [34] of 55.5 µM and a GI50 [35] of 15.7 µM. The TGI [35] was greater than 100 µM, the GI50 [36] was 1.36 µM and the TGI [36] was 7 µM. The GI50 [37] was 14.5 µM, the TGI [37] was 55.1 µM and the GI50 [38] was 6.83 µM. The TGI [38] was 20.3 µM, the GI50 [39] was 6.94 µM and the TGI [39] was 25.8 µM. For the same molecule, the GI50 [40] was 21.7 µM, the TGI [40] was greater than 100 µM and the GI50 [41] was 22.3 µM. For the same molecule, the TGI [41] was 67.4 µM, the GI50 [42] was 16.1 µM and the TGI [42] was 39.9 µM. For the same molecule, the GI50 [43] was 2.39 µM, the TGI [43] was greater than 100 µM and the GI50 [44] was 4.63 µM. It also gave a TGI [44] of 32 µM, a GI50 [45] of 3.52 µM and a TGI [45] of 20.1 µM. For the same molecule, the GI50 [46] was 5.02 µM, the TGI [46] was 17.7 µM and the GI50 [47] was 8.15 µM. It also gave a TGI [47] greater than 100 µM, a GI50 [48] of 4.59 µM and a TGI [48] of 18.1 µM. The GI50 [49] was 3.38 µM and the TGI [49] was greater than 100 µM.

For `COc1ccccc1NC(=O)c1sc2nc3c(cc2c1N)C(=O)CCC3`, the GI50 [1] was greater than 100 µM, the TGI [1] was greater than 100 µM and the GI50 [3] was 4.05 µM. For the same molecule, the TGI [3] was greater than 100 µM, the GI50 [4] was 6.29 µM and the TGI [4] was greater than 100 µM. For the same molecule, the GI50 [5] was 4.8 µM, the TGI [5] was greater than 100 µM and the GI50 [6] was 0.586 µM. It also gave a TGI [6] of 38.7 µM, a GI50 [8] of 7.14 µM and a TGI [8] greater than 100 µM. It also gave a GI50 [10] of 6.77 µM, a TGI [10] greater than 100 µM and a GI50 [11] of 3.59 µM. The TGI [11] was greater than 100 µM, the GI50 [12] was greater than 100 µM and the TGI [12] was greater than 100 µM. The GI50 [50] was 2.36 µM, the TGI [50] was 9.42 µM and the GI50 [51] was greater than 100 µM. For the same molecule, the TGI [51] was greater than 100 µM, the GI50 [13] was 6.2 µM and the TGI [13] was greater than 100 µM. For the same molecule, the GI50 [14] was 4.64 µM, the TGI [14] was greater than 100 µM and the GI50 [15] was greater than 100 µM. For the same molecule, the TGI [15] was greater than 100 µM, the GI50 [16] was 1.53 µM and the TGI [16] was greater than 100 µM. For the same molecule, the GI50 [17] was 3.06 µM, the TGI [17] was greater than 100 µM and the GI50 [20] was 5.06 µM. It also gave a TGI [20] greater than 100 µM, a GI50 [21] of 1.75 µM and a TGI [21] greater than 100 µM. The GI50 [22] was greater than 100 µM, the TGI [22] was greater than 100 µM and the GI50 [23] was 2.86 µM. It also gave a TGI [23] greater than 100 µM, a GI50 [24] greater than 100 µM and a TGI [24] greater than 100 µM. It also gave a GI50 [52] of 2.91 µM, a TGI [52] greater than 100 µM and a GI50 [53] of 4.43 µM. It also gave a TGI [53] greater than 100 µM, a GI50 [25] of 3.99 µM and a TGI [25] greater than 100 µM. The GI50 [26] was 4.87 µM, the TGI [26] was greater than 100 µM and the GI50 [27] was 16.8 µM. It also gave a TGI [27] greater than 100 µM, a GI50 [28] of 2.37 µM and a TGI [28] of 7.17 µM. For the same molecule, the GI50 [29] was 1.84 µM, the TGI [29] was greater than 100 µM and the GI50 [30] was 0.295 µM. The TGI [30] was 1.58 µM, the GI50 [31] was greater than 100 µM and the TGI [31] was greater than 100 µM. It also gave a GI50 [33] of 1.75 µM, a TGI [33] greater than 100 µM and a GI50 [34] of 3.46 µM. The TGI [34] was greater than 100 µM, the GI50 [35] was 2.03 µM and the TGI [35] was greater than 100 µM. The GI50 [36] was 1.83 µM, the TGI [36] was 9.33 µM and the GI50 [37] was 12.8 µM. The TGI [37] was greater than 100 µM, the GI50 [38] was 1.62 µM and the TGI [38] was greater than 100 µM. It also gave a GI50 [40] of 1.81 µM, a TGI [40] greater than 100 µM and a GI50 [42] of 2.11 µM. It also gave a TGI [42] greater than 100 µM, a GI50 [43] greater than 100 µM and a TGI [43] greater than 100 µM. For the same molecule, the GI50 [44] was 3.97 µM, the TGI [44] was greater than 100 µM and the GI50 [46] was 25.3 µM. For the same molecule, the TGI [46] was greater than 100 µM, the GI50 [54] was 3.97 µM and the TGI [54] was greater than 100 µM. For the same molecule, the GI50 [47] was 8.15 µM, the TGI [47] was greater than 100 µM and the GI50 [48] was greater than 100 µM. It also gave a TGI [48] greater than 100 µM, a GI50 [49] greater than 100 µM and a TGI [49] greater than 100 µM.

From PubChem BioAssay (NCI)
